One data set deals with Peritoneal macrophage. Nature of the data set: Cytotoxicity against BALB/c mouse peritoneal macrophage assessed as cell proliferation at 20 ug for 48 hrs by MTT assay. The data set is classed as toxicity, cell-based. Particulars: dose 20 µg. For orientation: Tetrazolium assays rely on reduction of a dye to a coloured formazan, in cell work by metabolically active cells.
Data set [1] deals with Nucleotide-binding oligomerization domain-containing protein 2 (Homo sapiens) (UniProt Q9HC29). The experiment in a line: Binding affinity to NOD2 in HEK-Blue hNOD2 cells by measuring secreted alkaline phosphatase into culture supernatant at 20 ug measured after 24 hrs by HEK-Blue detection method. The data set is classed as cell-based. Particulars: filed as agonist, dose 20.0 µg.
Nucleotide-binding oligomerization domain-containing protein 2 (Homo sapiens), sequence (Q9HC29 whole entry, the tested form may be a part): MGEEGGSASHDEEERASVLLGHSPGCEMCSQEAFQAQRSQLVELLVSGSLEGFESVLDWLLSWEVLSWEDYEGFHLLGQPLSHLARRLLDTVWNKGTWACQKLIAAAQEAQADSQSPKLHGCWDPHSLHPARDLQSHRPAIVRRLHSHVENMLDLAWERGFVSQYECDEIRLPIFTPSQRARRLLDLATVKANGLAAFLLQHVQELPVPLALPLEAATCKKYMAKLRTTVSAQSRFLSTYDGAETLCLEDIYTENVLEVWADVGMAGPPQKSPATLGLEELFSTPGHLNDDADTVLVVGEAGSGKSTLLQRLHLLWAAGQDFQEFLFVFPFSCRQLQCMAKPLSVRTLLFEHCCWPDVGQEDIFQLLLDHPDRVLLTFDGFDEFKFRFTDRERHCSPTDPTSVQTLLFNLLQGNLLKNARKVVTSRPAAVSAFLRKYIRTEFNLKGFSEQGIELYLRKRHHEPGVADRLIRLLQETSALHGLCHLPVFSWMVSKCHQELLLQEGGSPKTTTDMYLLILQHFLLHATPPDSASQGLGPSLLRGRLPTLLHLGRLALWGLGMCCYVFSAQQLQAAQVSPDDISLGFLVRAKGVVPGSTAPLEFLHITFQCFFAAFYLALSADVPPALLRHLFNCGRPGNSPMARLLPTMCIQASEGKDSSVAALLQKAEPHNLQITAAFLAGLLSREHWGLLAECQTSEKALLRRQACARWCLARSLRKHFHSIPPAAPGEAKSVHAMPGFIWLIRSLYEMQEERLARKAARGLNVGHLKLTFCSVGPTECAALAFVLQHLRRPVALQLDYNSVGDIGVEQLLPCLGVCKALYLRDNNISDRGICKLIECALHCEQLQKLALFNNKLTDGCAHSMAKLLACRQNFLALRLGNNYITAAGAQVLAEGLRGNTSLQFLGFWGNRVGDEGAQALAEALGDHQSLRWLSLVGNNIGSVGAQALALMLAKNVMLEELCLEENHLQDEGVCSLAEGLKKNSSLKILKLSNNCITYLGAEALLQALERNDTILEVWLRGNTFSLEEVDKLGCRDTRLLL

Data set [2] in a line: Induction of mouse spleen dendritic cells activation at 20 ug for 24 hrs relative to control. The data set is classed as functional, Dendritic cell. Particulars: dose 20 µg.
A short description of data set [3]: Induction of BALB/c mouse peritoneal macrophage activation by measuring TNF-alpha level at 20 ug for 48 hrs by ELISA analysis. The data set is classed as functional. Particulars: dose 20 µg.
The test system of data set [4] is Serum. Nature of the data set: Induction of antibody titer production in immunized BALB/c mouse serum assessed as fold increase in IgG1 antibody titer at 20 ug for 28 days. The data set is classed as functional. The settings on record: dose 20 µg; time 28 day.
The subject of data set [5] is Serum. Nature of the data set: Induction of antibody titer production in immunized BALB/c mouse serum assessed as increase in IgG2a antibody titer at 20 ug for 28 days. The class given is functional, cell-free. The settings on record: dose 20.0 µg, time 28.0 day.
Data set [6] concerns Serum. The experiment in a line: Induction of antibody titer production in immunized BALB/c mouse serum assessed as increase in IgG1 antibody titer at 20 ug for 28 days. The class given is functional, cell-free. The settings on record: dose 20.0 µg, time 28.0 day.
Data set [7] has as its system Splenocyte. The experiment in a line: Cytotoxicity against mouse splenocyte incubated at 10 to 30 ug for 3 hrs in by MTT assay. The data set is classed as toxicity, cell-based. The settings on record: dose 10-30 µg.
For data set [8], the system named is Serum. Nature of the data set: Induction of antibody titer production in immunized BALB/c mouse serum assessed as increase in IgG2a antibody titer at 10 to 30 ug for 28 days. The data set is classed as functional, cell-free. Particulars: dose 10-30 µg, time 28.0 day.
Data set [9] concerns Serum. The experiment in a line: Induction of antibody titer production in immunized BALB/c mouse serum assessed as increase in IgG1 antibody titer at 10 to 30 ug for 28 days. Particulars: dose 10-30 µg, time 28.0 day. The class given is functional, cell-free.
For data set [10], the system named is CD4+ve Th. The experiment in a line: Stimulation of CD4+ T helper cells in mouse spleen at 20 ug for 15 mins by auto- fluorescence based analysis. Particulars: dose 20.0 µg. The class given is functional, cell-based.
In data set [11] the test system is CD8-positive T cell. Nature of the data set: Stimulation of […] in mouse spleen at 20 ug for 15 mins by auto- fluorescence based analysis. The data set is classed as functional, tissue-based. The settings on record: dose 20.0 µg.
Data set [12] concerns Splenocyte. Nature of the data set: Upregulation of IL-1beta in Dengue virus recombinant antigen restimulated mouse splenocyte incubated at 30 ug for 48 hrs by ELISA anlaysis. The data set is classed as functional, cell-based. The settings on record: dose 10-30 µg. (In general: An ELISA detects its analyte on a solid surface through an enzyme-linked reagent.)
Data set [13] concerns Splenocyte. Nature of the data set: Upregulation of IL-1beta in Dengue virus recombinant antigen restimulated mouse splenocyte incubated at 20 ug for 48 hrs by ELISA anlaysis. The class given is functional, cell-based. Particulars: dose 20.0 µg.
The nature of data set [14]: Cytotoxicity against BALB/c mouse peritoneal macrophage assessed as cell proliferation at 20 ug for 48 hrs by MTT assay relative to control. The data set is classed as toxicity, cell-based. Particulars: peritoneal macrophages, at 20 µg, read-out: Activity.
The test system of data set [15] is Serum. The experiment in a line: Induction of antibody titer production in immunized BALB/c mouse serum assessed as fold increase in IgG1 antibody titer at 30 ug for 28 days. The class given is functional. Particulars: dose 30 µg; time 28 day.
In data set [16] the test system is CD4+ve Th. The experiment in a line: Stimulation of CD4+ T helper cells in mouse spleen for 15 mins by auto- fluorescence based analysis. The class given is functional, cell-based.
The subject of data set [17] is CD8-positive T cell. The experiment in a line: Stimulation of […] in mouse spleen for 15 mins by auto- fluorescence based analysis. The class given is functional, tissue-based. Particulars: dose 10-30 µg.

The text below walks through data of ChEMBL document CHEMBL5352502, “Design, synthesis and biological evaluation of novel lipophilic 2, 5-disubstituted tetrazole analogues of muramyl dipeptide as NOD2 agonists” (Bioorg Med Chem, 2023).

Calls of active or inactive are those of the source. The rule behind the calls is not given here. Some results are limits rather than exact numbers.

On to `CC(=O)N[C@@H]1[C@@H](O[C@H](C)C(=O)N[C@@H](C)C(=O)N[C@H](CCC(=O)O)c2nn[nH]n2)[C@H](O)[C@@H](CO)O[C@@H]1O`, for which the Activity result was “Non-Toxic” with Peritoneal macrophage, 13% in data set [2] and 250 pg/mL in [3]. For the same compound, the outcome in data set [1] was Active.

`CCCCCCCCCCCCCCCCCCn1nnc([C@@H](CCC(=O)O)NC(=O)[C@H](C)NC(=O)[C@@H](C)O[C@H]2[C@H](O)[C@@H](CO)O[C@H](O)[C@@H]2NC(C)=O)n1`: the Activity result is recorded as “Non-Toxic” in the data set with Peritoneal macrophage, 13% in [2] and “<=100 pg/ml” in data set [3]. Further, in [1], the result was Active.

As for `CC(=O)N[C@H]1[C@@H](OCc2ccccc2)O[C@@H]2CO[C@@H](c3ccccc3)O[C@H]2[C@@H]1O[C@H](C)C(=O)N[C@@H](C)C(=O)N[C@H](CCC(=O)OCc1ccccc1)C(N)=O`, the Activity entry was “Non-Toxic” in the data set with Peritoneal macrophage, 13% in data set [2] and “Toxic” in the data set on Splenocyte [7]. Further, the outcome (in data set [1]; in the data set on Serum [5]; in the data set with Serum [6]) was Active. Moreover, in the data set on Serum [4], the “fold change (FC)” value turned out to be 7.

As to `CCCCCCCCn1nnc([C@@H](CCC(=O)O)NC(=O)[C@H](C)NC(=O)[C@@H](C)O[C@H]2[C@H](O)[C@@H](CO)O[C@H](O)[C@@H]2NC(C)=O)n1`, the Activity result with Peritoneal macrophage is “Non-Toxic”; in data set [2], 13%; in data set [3], “<=100 pg/ml”; in the data set on Splenocyte [7] it was “Non-Toxic”. In addition, the outcome (in data set [1]; with Serum [8]; with Serum [9]; in the data set with Splenocyte [12]; in the data set on Splenocyte [13]) was Active. Further, in the data set with Serum [4], the “fold change (FC)” value was 11. Moreover, the outcome with CD4+ve Th [10] and with CD8-positive T cell [11] was inactive.

Regarding `CCCCCCCCCCCCn1nnc([C@@H](CCC(=O)O)NC(=O)[C@H](C)NC(=O)[C@@H](C)O[C@H]2[C@H](O)[C@@H](CO)O[C@H](O)[C@@H]2NC(C)=O)n1`, in data set [14], the viability at 48 h, 20 ug is less than 140%. Moreover, the Activity result was “Non-Toxic” in the data set on Peritoneal macrophage, 13% in [2] and 250 pg/mL in [3]. In addition, in data set [1], the outcome was Active.

With `CCCCn1nnc([C@@H](CCC(=O)O)NC(=O)[C@H](C)NC(=O)[C@@H](C)O[C@H]2[C@H](O)[C@@H](CO)O[C@H](O)[C@@H]2NC(C)=O)n1`, the Activity result was “Non-Toxic” in the data set on Peritoneal macrophage; 13% in data set [2]; “<=100 pg/ml” in [3]; “Dose-Dependent Effect” with CD4+ve Th [16]; “Dose-Dependent Effect” in the data set on CD8-positive T cell [17]; “Non-Toxic” in the data set on Splenocyte [7]. For the same compound, the result (in data set [1]; in the data set on Serum [8]; with Serum [9]) was Active. For the same compound, the “fold change (FC)” value was 8 in the data set with Serum [4] and 11 in the data set on Serum [15].

`CC(=O)N[C@@H]1[C@@H](O[C@H](C)C(=O)N[C@@H](C)C(=O)N[C@H](CCC(=O)O)c2nnn(C3CCCCCC3)n2)[C@H](O)[C@@H](CO)O[C@@H]1O`: the Activity entry with Peritoneal macrophage was “Non-Toxic”; in data set [2] it was 13%; in data set [3], 250 pg/mL. In data set [1], the result was Active.
